Results published in ChEMBL document CHEMBL3046640, “Synthesis and antimicrobial activity of bischalcone derivatives” (2013).
Values after ≈ are worked out from the molar mass of the structure shown. Active and inactive are the calls of the source. The rule behind the calls is not given here.

Experiments:
Format in all cases: functional
[1] = tested on: Rhizopus arrhizus; assay: Antifungal activity against Rhizopus oryzae MTCC 262 assessed as growth inhibition at 100 ug/mL after 3 to 4 days by agar diffusion method; settings: read-out: DIZ
[2] = tested on: Aspergillus niger; assay: Antifungal activity against Aspergillus niger ATCC 16404 assessed as growth inhibition at 100 ug/mL after 3 to 4 days by agar diffusion method; settings: read-out: DIZ
[3] = tested on: Candida albicans; assay: Antifungal activity against Candida albicans ATCC 10231 assessed as growth inhibition at 100 ug/mL after 3 to 4 days by agar diffusion method; settings: read-out: DIZ
[4] = tested on: Pseudomonas aeruginosa; assay: Antibacterial activity against Pseudomonas aeruginosa ATCC 27853 assessed as growth inhibition at 100 ug/mL after 24 hr by cup-plate method; settings: ATCC 27853, 24 h, read-out: DIZ
[5] = tested on: Escherichia coli; assay: Antibacterial activity against Escherichia coli ATCC 25922 assessed as growth inhibition at 100 ug/mL after 24 hr by cup-plate method; settings: ATCC 25922, 24 h, read-out: DIZ
[6] = tested on: Staphylococcus aureus; assay: Antibacterial activity against Staphylococcus aureus ATCC 25923 assessed as growth inhibition at 100 ug/mL after 24 hr by cup-plate method; settings: ATCC 25923, 24 h, read-out: DIZ
[7] = tested on: Rhizopus arrhizus; assay: Antifungal activity against Rhizopus oryzae MTCC 262 assessed as growth inhibition after 48 hr by broth dilution method
[8] = tested on: Aspergillus niger; assay: Antifungal activity against Aspergillus niger ATCC 16404 assessed as growth inhibition after 48 hr by broth dilution method
[9] = tested on: Candida albicans; assay: Antifungal activity against Candida albicans ATCC 10231 assessed as growth inhibition after 48 hr by broth dilution method
[10] = tested on: Pseudomonas aeruginosa; assay: Antibacterial activity against Pseudomonas aeruginosa ATCC 27853 assessed as growth inhibition after 24 hr by broth dilution method
[11] = tested on: Escherichia coli; assay: Antibacterial activity against Escherichia coli ATCC 25922 assessed as growth inhibition after 24 hr by broth dilution method
[12] = tested on: Staphylococcus aureus; assay: Antibacterial activity against Staphylococcus aureus ATCC 25923 assessed as growth inhibition after 24 hr by broth dilution method

Row | MIC ([7]; MTCC 262, 48 h) | MIC ([8]; ATCC 16404, 48 h) | MIC ([9]; ATCC 10231, 48 h) | MIC ([10]; ATCC 27853, 24 h) | MIC ([11]; ATCC 25922, 24 h) | MIC ([12]; ATCC 25923, 24 h) | MIC [10] | MIC [11] | MIC [7] | MIC [8] | MIC [9] | MIC [12] | Structure (SMILES) | zone of inhibition at 100 µg/mL [1] | zone of inhibition at 100 µg/mL [2] | zone of inhibition at 100 µg/mL [3] | zone of inhibition at 100 µg/mL [4] | zone of inhibition at 100 µg/mL [5] | zone of inhibition at 100 µg/mL [6]
1 | > 100 µg/mL | > 100 µg/mL | 50 µg/mL (≈ 97.5 µM) | > 100 µg/mL | 50 µg/mL (≈ 97.5 µM) | 50 µg/mL (≈ 97.5 µM) | – | – | – | – | – | – | CCN(CC)c1ccc(/C=C/C(=O)c2cc(C(=O)/C=C/c3ccc(N(CC)CC)cc3)c(O)cc2O)cc1 | 5 mm | 5 mm | 10 mm | 5 mm | 10 mm | 10 mm
2 | > 100 µg/mL | 50 µg/mL (≈ 144 µM) | 12.5 µg/mL (≈ 36.1 µM) | 12.5 µg/mL (≈ 36.1 µM) | 25 µg/mL (≈ 72.2 µM) | 25 µg/mL (≈ 72.2 µM) | – | – | – | – | – | – | O=c1cc(-c2ccco2)oc2cc3oc(-c4ccco4)cc(=O)c3cc12 | 5 mm | 10 mm | 15 mm | 15 mm | 15 mm | 15 mm
3 | > 100 µg/mL | 50 µg/mL (≈ 132 µM) | 50 µg/mL (≈ 132 µM) | – | – | 50 µg/mL (≈ 132 µM) | inactive | inactive | – | – | – | – | COc1cc(OC)c(C(=O)/C=C/c2ccco2)cc1C(=O)/C=C/c1ccco1 | 5 mm | 10 mm | 10 mm | < 5 mm | < 5 mm | 10 mm
4 | 25 µg/mL (≈ 58.6 µM) | 25 µg/mL (≈ 58.6 µM) | 25 µg/mL (≈ 58.6 µM) | 50 µg/mL (≈ 117 µM) | > 100 µg/mL | 50 µg/mL (≈ 117 µM) | – | – | – | – | – | – | COc1cccc(-c2cc(=O)c3cc4c(=O)cc(-c5cccc(OC)c5)oc4cc3o2)c1 | 15 mm | 15 mm | 15 mm | 10 mm | 5 mm | 10 mm
5 | – | – | – | – | – | – | inactive | inactive | inactive | inactive | inactive | inactive | CC(=O)c1cc(C(C)=O)c(OC(=O)c2ccccc2C)cc1OC(=O)c1ccccc1C | < 5 mm | < 5 mm | < 5 mm | < 5 mm | < 5 mm | < 5 mm
6 | > 100 µg/mL | > 100 µg/mL | 50 µg/mL (≈ 127 µM) | 50 µg/mL (≈ 127 µM) | > 100 µg/mL | 50 µg/mL (≈ 127 µM) | – | – | – | – | – | – | Cc1ccccc1-c1cc(=O)c2cc3c(=O)cc(-c4ccccc4C)oc3cc2o1 | 5 mm | 5 mm | 10 mm | 10 mm | 5 mm | 10 mm
7 | 50 µg/mL (≈ 90.8 µM) | 50 µg/mL (≈ 90.8 µM) | 25 µg/mL (≈ 45.4 µM) | > 100 µg/mL | 50 µg/mL (≈ 90.8 µM) | 50 µg/mL (≈ 90.8 µM) | – | – | – | – | – | – | COc1cc(/C=C/C(=O)c2cc(C(=O)/C=C/c3cc(OC)c(OC)c(OC)c3)c(O)cc2O)cc(OC)c1OC | 10 mm | 10 mm | 15 mm | 5 mm | 10 mm | 10 mm
